#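 Test compounds were applied to cells in 96-well plates for 48 hours at 5 doses. Definition used: TGI = concentration required for complete inhibition of growth.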
# Key:
# Assay in all cases: NCI-60 cell line screen, 48 h
# [1] = system: ACHN renal
# [2] = system: OVCAR-3 ovarian
# [3] = system: CAKI-1 renal
# [4] = system: COLO 205 colon
# [5] = system: SF-268 CNS
# [6] = system: MOLT-4 leukemia
# [7] = system: SF-539 CNS
# [8] = system: 786-0 renal
# [9] = system: MDA-MB-231 breast
# [10] = system: MDA-MB-435
# [11] = system: HS 578T breast
Compound,TGI [1] [µM],TGI [2] [µM],TGI [3] [µM],TGI [4] [µM],TGI [5] [µM],TGI [6] [µM],TGI [7] [µM],TGI [8] [µM],TGI [9] [µM],TGI [10] [µM],TGI [11] [µM]
NC1=NC2=c3ccccc3=C(c3cnccn3)C2(c2cnccn2)c2ccccc21 (stereo not drawn),> 100,81.4,> 100,> 100,> 100,95.8,> 100,> 100,,,
Cc1c2ccnc(C(=O)NCCN(C)C)c2cc2c3cc(O)ccc3n(C)c12,0.397,2.77,,4.01,2.28,0.0147,1.3,3.37,3.35,1.54,4.03
CC(=O)OCC(C)C1=C(OC(C)=O)C(=O)C2(C)C/C=C(/C)CC/C=C(\C)CCC(OC(C)=O)C(C)CCC12 (stereo not drawn),39.3,,,37.8,35,27.9,38.7,28.1,27.7,38.2,60
Oc1cc(O)c2ccc(-c3ccc(O)c(O)c3)[o+]c2c1,> 100,> 100,> 100,,> 100,> 100,> 100,> 100,,> 100,> 100
C(/C=C/c1ccccc1)=Nc1ccc2c(c1)Cc1ccccc1-2,> 100,> 100,> 100,,> 100,95,,> 100,> 100,> 100,> 100
NC(=O)C(=O)c1ncn(Cc2ccccc2)c1N,> 100,> 100,> 100,> 100,> 100,,> 100,> 100,> 100,> 100,> 100
CCCCCCCCOCC(O)COC(C)C (stereo not drawn),> 100,32.9,> 100,> 100,> 100,45,,> 100,,,
O=C(Cn1cc(-c2ccccc2)nn1)NC1CCCCC1,> 100,,> 100,> 100,> 100,> 100,> 100,> 100,> 100,> 100,
NC(CSCc1ccc(I)cc1)C(=O)O (stereo not drawn),> 100,> 100,> 100,> 100,> 100,> 100,,> 100,> 100,> 100,> 100
Cc1ccc(/C=N/n2c(Cc3ccccc3)n[nH]c2=O)cc1,> 100,> 100,> 100,> 100,> 100,> 100,> 100,> 100,> 100,,> 100
COc1cc2nc(Nc3cccc(Br)c3)nc(Nc3cccc(Br)c3)c2cc1OC,29.4,31.2,29.8,27.7,29.9,47.2,,31,39.7,36,38.5
CCc1c(CN)c(CC)c(CNC2=NCCN2)c(CC)c1CNC1=NCCN1,> 100,> 100,> 100,> 100,> 100,> 100,> 100,> 100,,> 100,> 100
COC(=O)/C(=N\NC(N)=O)C(C(=O)C(=O)Nc1ccccc1OC)c1nc2ccc([N+](=O)[O-])cc2[nH]c1=O (stereo not drawn),> 100,> 100,> 100,,> 100,,> 100,> 100,> 100,> 100,> 100
COc1ccccc1C1C(Cl)C(=O)N1n1cnc2ccccc2c1=O (stereo not drawn),> 100,> 100,> 100,> 100,> 100,> 100,,> 100,,,
CCN(CC)C(=O)Cn1c(-c2ccccc2)cc2ccccc21,> 100,> 100,,34,> 100,42.7,> 100,> 100,> 100,> 100,> 100
c1ccc2c(c1)NCCC(=NC1CCCCC1)N2,> 100,> 100,> 100,> 100,> 100,> 100,,> 100,> 100,> 100,> 100
FC(F)(F)c1ccc(Cc2nc3cc4ccccc4cc3[nH]2)cc1,> 100,> 100,> 100,> 100,> 100,,> 100,> 100,> 100,> 100,> 100
Nc1ccc2nc3c(nc2c1)C(=O)c1ccccc1-3,> 100,> 100,,> 100,> 100,> 100,> 100,> 100,> 100,> 100,> 100
Oc1ccc([Te]CCNCC[Te]c2ccc(O)cc2)cc1,94.8,,> 100,22.4,> 100,> 100,,> 100,,,
Nc1ccccc1Nc1ccccc1C(=O)[O-].Nc1ccccc1Nc1ccccc1C(=O)[O-].[Zn+2],> 100,61,> 100,> 100,> 100,> 100,> 100,> 100,,,
C1=NCCN2CCN(CCN=Cc3ccccc3OCc3cccc(n3)COc3ccccc31)CC2,25.6,4.66,,> 50,21.1,34.3,14.1,39.5,34,2.22,4.43
Clc1ccc(Nc2nnc(CCCCCCCCc3nnc(Nc4ccc(Cl)cc4)o3)o2)cc1,> 100,,> 100,> 100,,> 100,,60.1,> 100,> 100,
COc1ccc(N=C2S/C(=N\C(=Nc3ccccc3)SCc3ccccc3)N(c3ccccc3)C2=Nc2ccc(OC)cc2)cc1,,,,> 100,,> 100,,> 100,> 100,,> 100
